Test results reported in patent publication US20230235374A1, “High Throughput Assays for Detecting Translation Readthrough Inducers” (The Trustees of the University of Pennsylvania, priority 2021, published 2023).

Key:
[1] = biological target: T1, near-cognate aa-tRNA.eEF1A.GTP complex (TC) binding at a stop codon (Saccharomyces cerevisiae, UniProt P02994); conditions: Ng et al., 2021; cited from earlier work
T1 sequence (P02994 2-458 limits assumed): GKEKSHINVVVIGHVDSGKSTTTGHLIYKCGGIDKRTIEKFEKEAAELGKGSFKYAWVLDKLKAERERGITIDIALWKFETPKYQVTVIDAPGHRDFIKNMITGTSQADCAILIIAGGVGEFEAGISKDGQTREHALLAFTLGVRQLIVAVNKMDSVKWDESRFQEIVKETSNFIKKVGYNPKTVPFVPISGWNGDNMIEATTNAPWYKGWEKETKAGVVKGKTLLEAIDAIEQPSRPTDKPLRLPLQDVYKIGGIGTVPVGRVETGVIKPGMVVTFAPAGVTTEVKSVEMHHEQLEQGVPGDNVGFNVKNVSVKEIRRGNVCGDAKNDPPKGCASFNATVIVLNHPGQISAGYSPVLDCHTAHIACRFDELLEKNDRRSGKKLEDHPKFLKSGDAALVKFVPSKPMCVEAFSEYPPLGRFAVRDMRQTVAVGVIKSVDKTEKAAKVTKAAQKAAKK

[2] = test system: rRNA fragments I-IV of 80S-IRES; experiment: RNaseH fragment assay, 80S-IRES; assay type: binding, shrimp (Artemia salina); conditions: PAL, 300 μM AzAt, alone or plus competing ligand named as label
Experimental: RNaseH Fragment Assay. Total RNA was prepared from the ^3H-AzAt photoaffinity labeled ribosome by phenol-chloroform extraction. RNA: DNA duplexes were formed by incubating total RNA (0.2 μM) with an oligonucleotide pair (1 μM of each, sequences shown Table 1), flanking a specific RNA region, in 22.8 μL of water at 95° C. for 2 min, followed by annealing at 50° C. for 30 s and quenching on ice. Six units (1.2 μL) of RNase H (NEB) and 6 μl of 5×RNase H Reaction Buffer were next added to the RNA: DNA duplex and incubated at 37° C. for 1 hour, followed by phenol-chloroform extraction of RNA. The digested RNA was separated on 12% TBE-Urea PAGE gel, and the target band along with the adjacent upper and bottom gels were sliced by a 2 mm gel cutter. The gel slices were crushed and the ^3H labeled rRNA fragment was extracted in water by vigorously shaking at 70° C. for 30 min, or by overnight extraction in elution buffer (0.3M sodium acetate, 0.25% SDS, 1 mM EDTA). The slurry was removed by centrifugation and the eluted ^3H labeled rRNA in the supernatant was quantified. The stoichiometry of AzAt photoincorporation was calculated based on a gel recovery yield of 20±2%, determined using an authentic sample of [^3H]-Gln-tRNA^Gln.
Testing the functional pertinence of AzAt photolabeling of 18S A1195, 28S-A3093, 28S-A2672, and 28S-2669. An RNAse H fragment assay was employed to determine whether the potential functionally significant sites identified by LASER-seq correspond to ataluren binding sites relevant for termination activity. In this assay, oligonucleotide hybridization, RNase H digestion and polyacrylamide gel electrophoresis (PAGE) were used to determine the stoichiometry of [^3H]-AzAt photoincorporation into the three rRNA fragments that together include the four nucleotides of interest: Fragment I, 18S-A1195; Fragment II, 26S-A3093; Fragment III, 26S-A2669 and 26S-A2672 (Table 5). The separate addition of four potential competitors of AzAt binding (eRF1 alone, the stably bound eRF1.eRF3.GDPNP complex, ataluren, and the ataluren-like TRID GJ072) was used to test how these affected such photoincorporation. These experiments, the results of which are summarized in Table 5, were performed at two different AzAt concentrations. eRF1 and eRF1.eRF3.GDPNP effects were measured using 300 μM AzAt, paralleling the LASER-Seq PAL experiments.

Stop-POST5 complex = experiment: [3H]-AzAt photoaffinity labeling of Stop-POST5 complex; assay type: binding, shrimp (Artemia salina)
Experimental: Photoaffinity labeling with [^3H]-AzAt. Samples in Buffer 4, typically 20 μL, were incubated in the dark (20 min for Stop-POST5 and 80S-IRES complexes, 2 min for release factors) with various concentrations of [^3H]-AzAt at 37° C., transferred to a UV-transparent cuvette which was covered with parafilm to prevent evaporation, and irradiated in a Rayonet photochemical reactor equipped with 300 nm UV lamps for 5 min at room temperature. This was followed by quenching with 2 mM DTT at 37° C. for 5 min under ambient light. The irradiation time gave complete photolysis of the phenyl azide moiety in AzAt. Photolysis was also complete at 5 min in the presence of 1 mM ataluren, ruling out internal filtering effects.
Stop-POST5 and 80S-IRES complexes. 1 μM solutions of either Stop-POST5 or 80S-S.IRES, determined by A260, were photolabeled by [^3H]-AzAt. The sample was then either directly purified by ultracentrifugation through a sucrose cushion to determine the photoincorporation stoichiometry in the complex, or subjected to phenol/chloroform extraction to determine the photoincorporation stoichiometry in the total RNA. To determine the photoincorporation background arising from incomplete removal of noncovalently bound photolyzed AzAt, AzAt was prephotolysed for 5 min before adding to the complex, followed by the 20 min incubation in dark at 37° C. and subsequent sucrose cushion purification or RNA extraction as described above.

Compound | effect on productive binding of near-cognate TC at a stop codon [1] | Photoincorporation yields into 18S A1195/ I: 18S 1151-1206 ([2]; 80S-IRES) [mole %] | Photoincorporation yields into 26S-A2669:A2672/ III: 26S 2638-2702 ([2]; 80S-IRES) [mole %] | Photoincorporation yields into 26S-A3093/ II: 26S 3069-3113 ([2]; 80S-IRES) [mole %] | Photoincorporation yields into RNAse H Fragment IV: 26S 1413-1476 ([2]; 80S.IRES) [%] | saturation labeling of Stop-POST5 (Stop-POST5 complex) | share of photoincorporation found in RNA components of Stop-POST5 (Stop-POST5 complex) | KA, AzAt photoincorporation into Stop-POST5 (Stop-POST5 complex; fit to eq (1), FIG. 2B) [µM] | share of RNA photoincorporation found within 18S and 26S rRNA (Stop-POST5 complex; urea-PAGE analysis) [%]
O=C(O)c1cccc(-c2noc(-c3ccccc3F)n2)c1 [Ataluren] | no effect | – | – | – | – | – | – | – | –
[N-]=[N+]=Nc1ccc(-c2nc(-c3cccc(C(=O)O)c3)no2)cc1 [AzAt] | – | 1.03 ± 0.33 | 1.01 ± 0.12 | 0.50 ± 0.09 | 0.29 ± 0.11 | 1.2 /Stop-POST5 | More than 80% | 120 ± 60 | > 90
